Laboratory results as given in US11697648B2, “Fused pyrimidine pyridinone compounds as JAK inhibitors” (THERAVANCE BIOPHARMA R&D IP, LLC, priority 2019, dated 2023).

Tests used:
JAK1 = JAK1 (Homo sapiens (Human), UniProt P23458); assay: Biochemical JAK1 kinase assay (LanthaScreen)
Method: (§1) Assay 1: Biochemical JAK and Tyk2 Kinase Assays
(§2) A panel of four LanthaScreen JAK biochemical assays (JAK1, 2, 3 and Tyk2) were carried in a common kinase reaction buffer (50 mM HEPES, pH 7.5, 0.01% Brij-35, 10 mM MgCl2, and 1 mM EGTA). Recombinant GST-tagged JAK enzymes and a GFP-tagged STAT1 peptide substrate were obtained from Life Technologies.
(§3) Serially or discretely diluted compounds were pre-incubated with each of the four JAK enzymes and the substrate in white 384-well microplates (Corning) at ambient temperature for 1 h. ATP was subsequently added to initiate the kinase reactions in 10 μL total volume, with 1% DMSO. […] Kinase reactions were allowed to proceed for 1 hour at ambient temperature before a 10 μL preparation of EDTA (10 mM final concentration) and Tb-anti-pSTAT1 (pTyr701) antibody (Life Technologies, 2 nM final concentration) in TR-FRET dilution buffer (Life Technologies) was added. The plates were allowed to incubate at ambient temperature for 1 h before being read on the EnVision reader (Perkin Elmer). Emission ratio signals (520 nm/495 nm) were recorded and utilized to calculate the percent inhibition values based on DMSO and background controls.
(§4) For dose-response analysis, percent inhibition data were plotted vs. compound concentrations, and IC50 values were determined from a 4-parameter robust fit model with the Prism software (GraphPad Software). Results were expressed as pIC50 (negative logarithm of IC50) and subsequently converted to pKi (negative logarithm of dissociation constant, Ki) using the Cheng-Prusoff equation.

JAK3 = JAK3 (Homo sapiens (Human), UniProt P52333); assay: Biochemical JAK3 kinase assay (LanthaScreen)
Method: as §1, §2, §3, §4

[1] = system: IL-2 stimulated STAT5 phosphorylation in Tall-1 human T cell line (JAK3); assay: Cellular JAK3 potency assay: inhibition of IL-2 stimulated pSTAT5 in Tall-1 T cells; format: cell-based
Method: Assay 2: Cellular JAK3 Potency Assay: Inhibition of IL-2 Stimulated pSTAT5 in Tall-1 T Cells
The potency of test compounds for inhibition of interleukin-2 (IL-2) stimulated STAT5 phosphorylation was measured in the Tall-1 human T cell line (DSMZ) using AlphaLisa. Because IL-2 signals through JAK3, this assay provides a measure of JAK3 cellular potency.
Phosphorylated STAT5 was measured via the AlphaLISA SureFire Ultra pSTAT5 (Tyr694/699) kit (PerkinElmer).
Human T cells from the Tall-1 cell line were cultured in a 37° C., 5% CO2 humidified incubator in RPMI (Life Technologies) supplemented with 15% Heat Inactivated Fetal Bovine Serum (FBS, Life Technologies), 2 mM Glutamax (Life Technologies), 25 mM HEPES (Life Technologies) and 1× Pen/Strep (Life Technologies). Compounds were serially diluted in DMSO and dispensed acoustically to empty wells. Assay media (phenol red-free DMEM (Life Technologies) supplemented with 10% FBS (ATCC)) was dispensed (4 μL/well) and plates shaken at 900 rpm for 10 inns. Cells were seeded at 45,000 cells/well in assay media (4 μL/well), and incubated at 37° C., 5% CO2 for 1 hour, followed by the addition of IL-2 (R&D Systems; final concentration 300 ng/ml) in pre-warmed assay media (4 μL) for 30 minutes. After cytokine stimulation, cells were lysed with 6 ul of 3× AlphaLisa Lysis Buffer (PerkinElmer) containing 1× PhosStop and Complete tablets (Roche). The lysate was shaken at 900 rpm for 10 minutes at room temperature (RT). Phosphorylated STAT5 was measured via the pSTAT5 AlphaLisa kit (PerkinElmer). Freshly prepared acceptor bead mixture was dispensed onto lysate (5 μL) under green filtered <100 lux light. Plates were shaken at 900 rpm for 2 mins, briefly spun down, and incubated for 2 hrs at RT in the dark. Donor beads were dispensed (5 μL) under green filtered <100 lux light. Plates were shaken at 900 rpm for 2 minutes, briefly spun down, and incubated overnight at RT in the dark. Luminescence was measured with excitation at 689 nm and emission at 570 nm using an EnVision plate reader (PerkinElmer) under green filtered <100 lux light.
To determine the inhibitory potency of test compounds in response to IL-2, the average emission intensity of beads bound to pSTAT5 was measured in a human T cell line. IC50 values were determined from analysis of the inhibition curves of signal intensity versus compound concentration. Data are expressed as pIC50 (negative decadic logarithm IC50) values (mean standard deviation).

[2] = selectivity JAK3 over JAK1, difference of pKi
[3] = IL-2 stimulated pSTAT5, Tall-1 T cells
[4] = selectivity, difference of pKi values
[5] = IL-2 stimulated pSTAT5 in Tall-1 T cells

Chain of JAK1 (P23458 whole entry): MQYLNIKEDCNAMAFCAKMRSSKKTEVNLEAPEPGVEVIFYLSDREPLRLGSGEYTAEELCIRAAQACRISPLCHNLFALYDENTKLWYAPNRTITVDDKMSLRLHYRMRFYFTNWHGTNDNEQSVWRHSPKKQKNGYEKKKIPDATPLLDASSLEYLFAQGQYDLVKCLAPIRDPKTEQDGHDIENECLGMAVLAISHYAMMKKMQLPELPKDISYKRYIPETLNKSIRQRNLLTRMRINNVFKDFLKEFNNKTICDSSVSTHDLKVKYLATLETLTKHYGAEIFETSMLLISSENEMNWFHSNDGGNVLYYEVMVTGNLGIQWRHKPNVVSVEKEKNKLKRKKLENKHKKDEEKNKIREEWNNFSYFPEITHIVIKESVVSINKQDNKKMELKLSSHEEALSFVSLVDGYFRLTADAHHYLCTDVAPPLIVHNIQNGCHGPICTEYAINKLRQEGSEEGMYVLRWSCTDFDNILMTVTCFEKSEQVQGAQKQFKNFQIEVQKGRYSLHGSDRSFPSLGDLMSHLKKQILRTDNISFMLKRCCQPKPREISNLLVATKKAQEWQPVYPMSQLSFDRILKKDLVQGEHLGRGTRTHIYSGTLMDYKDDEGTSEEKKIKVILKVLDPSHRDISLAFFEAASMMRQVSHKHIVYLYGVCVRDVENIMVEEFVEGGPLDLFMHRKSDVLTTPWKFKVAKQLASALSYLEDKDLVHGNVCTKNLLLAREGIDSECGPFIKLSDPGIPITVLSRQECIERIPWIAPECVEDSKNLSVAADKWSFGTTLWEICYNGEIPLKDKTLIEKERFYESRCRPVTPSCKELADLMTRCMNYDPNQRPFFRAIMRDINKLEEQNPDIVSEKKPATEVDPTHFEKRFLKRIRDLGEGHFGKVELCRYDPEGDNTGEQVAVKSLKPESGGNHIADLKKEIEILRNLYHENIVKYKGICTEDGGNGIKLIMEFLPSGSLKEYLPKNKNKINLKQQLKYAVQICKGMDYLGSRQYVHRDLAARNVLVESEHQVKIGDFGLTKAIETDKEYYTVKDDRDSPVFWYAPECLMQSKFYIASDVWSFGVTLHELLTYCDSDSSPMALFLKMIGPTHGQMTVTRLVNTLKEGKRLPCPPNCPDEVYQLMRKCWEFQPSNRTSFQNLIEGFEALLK
Chain of JAK3 (P52333 whole entry): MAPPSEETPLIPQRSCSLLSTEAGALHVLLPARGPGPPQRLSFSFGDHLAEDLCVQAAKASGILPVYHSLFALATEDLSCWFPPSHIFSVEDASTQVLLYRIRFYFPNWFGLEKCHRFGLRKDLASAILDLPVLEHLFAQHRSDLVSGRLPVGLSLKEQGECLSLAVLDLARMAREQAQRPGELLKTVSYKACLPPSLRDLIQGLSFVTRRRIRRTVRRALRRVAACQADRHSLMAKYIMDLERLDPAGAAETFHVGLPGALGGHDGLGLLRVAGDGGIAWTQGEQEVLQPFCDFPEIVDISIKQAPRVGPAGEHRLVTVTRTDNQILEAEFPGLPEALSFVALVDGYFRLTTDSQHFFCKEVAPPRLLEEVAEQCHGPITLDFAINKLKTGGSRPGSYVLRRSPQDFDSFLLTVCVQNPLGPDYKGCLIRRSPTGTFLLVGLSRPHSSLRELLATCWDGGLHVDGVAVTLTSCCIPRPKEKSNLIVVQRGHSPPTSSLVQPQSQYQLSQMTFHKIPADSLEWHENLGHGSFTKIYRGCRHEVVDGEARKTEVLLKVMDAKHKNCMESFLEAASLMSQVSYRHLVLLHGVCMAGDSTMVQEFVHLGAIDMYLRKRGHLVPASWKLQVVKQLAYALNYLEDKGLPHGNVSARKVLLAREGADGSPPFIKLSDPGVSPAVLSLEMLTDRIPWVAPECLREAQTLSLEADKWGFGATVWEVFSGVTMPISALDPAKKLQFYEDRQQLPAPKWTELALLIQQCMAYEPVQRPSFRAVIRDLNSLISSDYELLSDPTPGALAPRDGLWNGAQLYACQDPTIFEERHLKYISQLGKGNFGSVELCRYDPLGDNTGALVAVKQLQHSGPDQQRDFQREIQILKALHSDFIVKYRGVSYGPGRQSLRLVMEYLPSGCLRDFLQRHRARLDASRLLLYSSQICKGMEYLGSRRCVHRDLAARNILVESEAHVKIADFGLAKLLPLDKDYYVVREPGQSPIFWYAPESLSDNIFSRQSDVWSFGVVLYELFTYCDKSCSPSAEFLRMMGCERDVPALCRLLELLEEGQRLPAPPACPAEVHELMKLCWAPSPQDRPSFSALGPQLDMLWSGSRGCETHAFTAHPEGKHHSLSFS

Compound | JAK 1 (pKi) (JAK1) | JAK 3 (pKi) (JAK3) | JAK3 (pKi)-JAK1 (pKi) (JAK3; [2]) | Tall-1 (pIC50) [1, 3] | JAK3 (pKi)-JAK1 (pKi) (JAK3; [4]) | Tall-1 (pIC50) [1, 5]
C=CC(=O)N1CCN(CCn2c(=O)ccc3cnc(Nc4cnn(CCOC(C)C)c4)nc32)CC1 [Example 42] | E (E represents a pKi value of 7 or below (Ki of 100 nM or above)) | B (B represents pKi value between 9 and 10 (Ki between 1 nM and 0.1 nM)) | A (A represents a value of 3 or above) | C (C represents a pIC50 value between 6 and 6.7 (IC50 between 1 μM and 200 nM)) |  | 
C=CC(=O)N1CC(CCn2c(=O)ccc3cnc(Nc4cnn(CCN(C)C)c4)nc32)C1 [Example 22] | E (E represents a pKi value of 7 or below (Ki of 100 nM or above)) | B (B represents pKi value between 9 and 10 (Ki between 1 nM and 0.1 nM)) | A (A represents a value of 3 or above) | C (C represents a pIC50 value between 6 and 6.7 (IC50 between 1 μM and 200 nM)) |  | 
C=CC(=O)N1CC(CCn2c(=O)ccc3cnc(Nc4ccc(N5C[C@@H](C)N(C)[C@H](C)C5)cc4)nc32)C1 [Example 264] | E (E represents a pKi value of 7 or below (Ki of 100 nM or above)) | B (B represents pKi value between 9 and 10 (Ki between 1 nM and 0.1 nM)) |  |  | A (A represents a value of 3 or above) | A (A represents a pIC50 value≥7.5 (IC50≤32 nM))
C=CC(=O)N1CC(CCn2c(=O)ccc3cnc(Nc4ccc(N5CCOCC5)cn4)nc32)C1 [Example 29] | E (E represents a pKi value of 7 or below (Ki of 100 nM or above)) | B (B represents pKi value between 9 and 10 (Ki between 1 nM and 0.1 nM)) | A (A represents a value of 3 or above) | C (C represents a pIC50 value between 6 and 6.7 (IC50 between 1 μM and 200 nM)) |  | 
C=CC(=O)N1CCN(CCn2c(=O)ccc3cnc(Nc4ccc(N5C[C@@H](C)N(C)[C@H](C)C5)cc4)nc32)[C@@H](CC)C1 [Example 263] | E (E represents a pKi value of 7 or below (Ki of 100 nM or above)) | B (B represents pKi value between 9 and 10 (Ki between 1 nM and 0.1 nM)) |  |  | A (A represents a value of 3 or above) | A (A represents a pIC50 value≥7.5 (IC50≤32 nM))
C=CC(=O)N1CCN(CCn2c(=O)ccc3cnc(Nc4ccc(N5C[C@@H](C)N(C)[C@@H](C)C5)cc4)nc32)[C@@H](CC)C1 [Example 222] | E (E represents a pKi value of 7 or below (Ki of 100 nM or above)) | B (B represents pKi value between 9 and 10 (Ki between 1 nM and 0.1 nM)) | A (A represents a value of 3 or above) | A (A represents a pIC50 value≥7.5 (IC50≤32 nM)) |  | 
C=CC(=O)N1CCN(CCn2c(=O)ccc3cnc(Nc4ccn(C(C)C)n4)nc32)[C@@H](CC)C1 [Example 259] | E (E represents a pKi value of 7 or below (Ki of 100 nM or above)) | B (B represents pKi value between 9 and 10 (Ki between 1 nM and 0.1 nM)) |  |  | A (A represents a value of 3 or above) | C (C represents a pIC50 value between 6 and 6.7 (IC50 between 1 μM and 200 nM))
C=CC(=O)N1CCN(CCn2c(=O)ccc3cnc(Nc4ccn(CC)n4)nc32)[C@@H](CC)C1 [Example 256] | E (E represents a pKi value of 7 or below (Ki of 100 nM or above)) | B (B represents pKi value between 9 and 10 (Ki between 1 nM and 0.1 nM)) |  |  | A (A represents a value of 3 or above) | C (C represents a pIC50 value between 6 and 6.7 (IC50 between 1 μM and 200 nM))
C=CC(=O)N1CC(CCn2c(=O)ccc3cnc(Nc4ccn(C(C)C)n4)nc32)C1 [Example 257] | E (E represents a pKi value of 7 or below (Ki of 100 nM or above)) | B (B represents pKi value between 9 and 10 (Ki between 1 nM and 0.1 nM)) |  |  | A (A represents a value of 3 or above) | B (B represents a pC50 value between 6.7 (included) and 7.5 (IC50 between 200 nM and 32 nM))
C=CC(=O)N1CCN(CCn2c(=O)ccc3cnc(Nc4ccn(CC)n4)nc32)[C@@H](C)C1 [Example 255] | E (E represents a pKi value of 7 or below (Ki of 100 nM or above)) | B (B represents pKi value between 9 and 10 (Ki between 1 nM and 0.1 nM)) |  |  | A (A represents a value of 3 or above) | C (C represents a pIC50 value between 6 and 6.7 (IC50 between 1 μM and 200 nM))
C=CC(=O)N1CC(CCn2c(=O)ccc3cnc(Nc4cnn(CCOC)c4)nc32)C1 [Example 21] | E (E represents a pKi value of 7 or below (Ki of 100 nM or above)) | B (B represents pKi value between 9 and 10 (Ki between 1 nM and 0.1 nM)) | A (A represents a value of 3 or above) | C (C represents a pIC50 value between 6 and 6.7 (IC50 between 1 μM and 200 nM)) |  | 
C=CC(=O)N1CCN(CCn2c(=O)ccc3cnc(Nc4cnn(C5CCN(C)CC5)c4)nc32)CC1 [Example 43] | E (E represents a pKi value of 7 or below (Ki of 100 nM or above)) | B (B represents pKi value between 9 and 10 (Ki between 1 nM and 0.1 nM)) | A (A represents a value of 3 or above) | C (C represents a pIC50 value between 6 and 6.7 (IC50 between 1 μM and 200 nM)) |  | 
C=CC(=O)N1CC(C)(CCn2c(=O)ccc3cnc(Nc4ccc(N5CCN(C)CC5)cc4)nc32)C1 [Example 260] | E (E represents a pKi value of 7 or below (Ki of 100 nM or above)) | B (B represents pKi value between 9 and 10 (Ki between 1 nM and 0.1 nM)) |  |  | A (A represents a value of 3 or above) | A (A represents a pIC50 value≥7.5 (IC50≤32 nM))
C=CC(=O)N1CC(CCn2c(=O)ccc3cnc(Nc4ccn(CC)n4)nc32)C1 [Example 254] | E (E represents a pKi value of 7 or below (Ki of 100 nM or above)) | B (B represents pKi value between 9 and 10 (Ki between 1 nM and 0.1 nM)) |  |  | A (A represents a value of 3 or above) | B (B represents a pC50 value between 6.7 (included) and 7.5 (IC50 between 200 nM and 32 nM))
C=CC(=O)N1CCN(CCn2c(=O)ccc3cnc(Nc4ccc(N5C[C@@H](C)N(C)[C@H](C)C5)cc4)nc32)[C@@H](C)C1 [Example 199] | E (E represents a pKi value of 7 or below (Ki of 100 nM or above)) | B (B represents pKi value between 9 and 10 (Ki between 1 nM and 0.1 nM)) | A (A represents a value of 3 or above) | A (A represents a pIC50 value≥7.5 (IC50≤32 nM)) |  | 
C=CC(=O)N1CCN(CCn2c(=O)ccc3cnc(Nc4ccc(N5CCOCC5)c(F)c4)nc32)CC1 [Example 41] | E (E represents a pKi value of 7 or below (Ki of 100 nM or above)) | B (B represents pKi value between 9 and 10 (Ki between 1 nM and 0.1 nM)) | A (A represents a value of 3 or above) | C (C represents a pIC50 value between 6 and 6.7 (IC50 between 1 μM and 200 nM)) |  | 
